This is an account of results in patent publication US9951063B2, “8-(piperazin-1-yl)-1,2,3,4-tetrahydro-isoquinoline derivatives” (IDORSIA PHARMACEUTICALS LTD, priority 2014, dated 2018).

A word on the IC50: it is the concentration that gives 50% inhibition.

Sequence of human CXCR3A (P49682 whole entry): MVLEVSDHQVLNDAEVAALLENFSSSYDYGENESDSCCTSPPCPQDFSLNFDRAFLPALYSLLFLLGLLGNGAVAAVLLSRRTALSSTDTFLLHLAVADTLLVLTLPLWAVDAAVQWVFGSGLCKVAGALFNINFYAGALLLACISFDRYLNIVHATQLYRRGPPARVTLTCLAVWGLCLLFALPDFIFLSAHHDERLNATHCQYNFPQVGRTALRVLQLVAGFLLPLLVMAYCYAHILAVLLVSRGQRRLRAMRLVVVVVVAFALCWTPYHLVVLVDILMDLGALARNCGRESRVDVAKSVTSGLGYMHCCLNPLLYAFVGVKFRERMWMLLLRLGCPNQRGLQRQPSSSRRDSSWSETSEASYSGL

This experiment addresses human CXCR3A (Homo sapiens (Human), UniProt P49682). Briefly: FLIPR assay (inhibition of CXCL10-induced calcium signal). To be noted: engineered CHO-K1 cells expressing human CXCR3A coupled to Galpha(16); Fluo-4-AM; CXCL10 agonist 20 nM; mean values where determined several times. In kind it is cell-based. In short, it runs like this: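 CHO-K1 cells expressing human CXCR3A coupled to Gα16 were loaded with Fluo-4-AM for 1 h in HBSS/20 mM Hepes pH 7.4 with probenecid. Compound was added, then CXCL10 (20 nM as dispensed). Baseline-subtracted peak fluorescence gave inhibition curves and IC50, averaged over repeats.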
As to `C[C@@H]1CN(c2cccc3c2CN(C(=O)c2ccc(C(F)(F)F)cc2)CC3)CCN1C(=O)Cn1cnc2cccnc21` [Example 77, 2-Imidazo[4,5-b]pyridin-3-yl-1-{(R)-2-methyl-4-[2-(4-trifluoromethyl-benzoyl)-1,2,3,4-tetrahydro-isoquinolin-8-yl]-piperazin-1-yl}-ethanone], the IC50 worked out at 92.3 nM.

Regarding `C[C@@H]1CN(c2cccc3c2CN(C(=O)Cc2ccccc2)CC3)CCN1C(=O)Cn1cnc2cccnc21` [Example 78, 2-Imidazo[4,5-b]pyridin-3-yl-1-[(R)-2-methyl-4-(2-phenylacetyl-1,2,3,4-tetrahydro-isoquinolin-8-yl)-piperazin-1-yl]-ethanone], the IC50 stood at 216 nM.

Take `C[C@@H]1CN(c2cccc3c2CN(C(=O)[C@H](C)c2ccccc2)CC3)CCN1C(=O)Cn1cnc2cccnc21` [Example 79, (R)-1-{8-[(R)-4-(2-Imidazo[4,5-b]pyridin-3-yl-acetyl)-3-methyl-piperazin-1-yl]-3,4-dihydro-1H-isoquinolin-2-yl}-2-phenyl-propan-1-one]: the IC50 was determined as 570 nM.

As to `C[C@@H]1CN(c2cccc3c2CN(C(=O)C2(c4ccccc4)CC2)CC3)CCN1C(=O)Cn1cnc2cccnc21` [Example 80, 2-Imidazo[4,5-b]pyridin-3-yl-1-{(R)-2-methyl-4-[2-(1-phenyl-cyclopropanecarbonyl)-1,2,3,4-tetrahydro-isoquinolin-8-yl]-piperazin-1-yl}-ethanone], the IC50 turned out to be 199 nM.

Take `C[C@@H]1CN(c2cccc3c2CN(C(=O)COc2ccccc2)CC3)CCN1C(=O)Cn1cnc2cccnc21` [Example 81, 2-Imidazo[4,5-b]pyridin-3-yl-1-{(R)-2-methyl-4-[2-(2-phenoxy-acetyl)-1,2,3,4-tetrahydro-isoquinolin-8-yl]-piperazin-1-yl}-ethanone]: the half-inhibitory concentration (IC50) was determined as 65.1 nM.

Turning to `C[C@@H]1CN(c2cccc3c2CN(C(=O)CCc2ccc(Cl)cc2)CC3)CCN1C(=O)Cn1cnc2cccnc21` [Example 82, 3-(4-Chloro-phenyl)-1-{8-[(R)-4-(2-imidazo[4,5-b]pyridin-3-yl-acetyl)-3-methyl-piperazin-1-yl]-3,4-dihydro-1H-isoquinolin-2-yl}-propan-1-one], the IC50 is 88.1 nM.

For the molecule `C[C@@H]1CN(c2cccc3c2CN(C(=O)CCc2ccccc2)CC3)CCN1C(=O)Cn1cnc2cccnc21` [Example 83, 1-{8-[(R)-4-(2-Imidazo[4,5-b]pyridin-3-yl-acetyl)-3-methyl-piperazin-1-yl]-3,4-dihydro-1H-isoquinolin-2-yl}-3-phenyl-propan-1-one], the IC50 stood at 450 nM.

In the case of `C[C@@H]1CN(c2cccc3c2CN(C(=O)CCc2ccc(Cl)c(Cl)c2)CC3)CCN1C(=O)Cn1cnc2cccnc21` [Example 84, 3-(3,4-Dichloro-phenyl)-1-{8-[(R)-4-(2-imidazo[4,5-b]pyridin-3-yl-acetyl)-3-methyl-piperazin-1-yl]-3,4-dihydro-1H-isoquinolin-2-yl}-propan-1-one], the IC50 came to 99.7 nM.

Turning to `C[C@@H]1CN(c2cccc3c2CN(C(=O)c2ccc4ncccc4c2)CC3)CCN1C(=O)Cn1cnc2cccnc21` [Example 85, 2-Imidazo[4,5-b]pyridin-3-yl-1-{(R)-2-methyl-4-[2-(quinoline-6-carbonyl)-1,2,3,4-tetrahydro-isoquinolin-8-yl]-piperazin-1-yl}-ethanone], the half-inhibitory concentration (IC50) is 866 nM.

For `C[C@@H]1CN(c2cccc3c2CN(C(=O)Cn2cnc4ccccc42)CC3)CCN1C(=O)Cn1cnc2cccnc21` [Example 86, 1-{(R)-4-[2-(2-Benzoimidazol-1-yl-acetyl)-1,2,3,4-tetrahydro-isoquinolin-8-yl]-2-methyl-piperazin-1-yl}-2-imidazo[4,5-b]pyridin-3-yl-ethanone], the IC50 came out at 686 nM.

`C[C@@H]1CN(c2cccc3c2CN(C(=O)Cn2cccn2)CC3)CCN1C(=O)Cn1cnc2cccnc21` [Example 87, 2-Imidazo[4,5-b]pyridin-3-yl-1-{(R)-2-methyl-4-[2-(2-pyrazol-1-yl-acetyl)-1,2,3,4-tetrahydro-isoquinolin-8-yl]-piperazin-1-yl}-ethanone]: the IC50 was 5420 nM.

For the molecule `C[C@@H]1CN(c2cccc3c2CN(C(=O)CN2CCOCC2)CC3)CCN1C(=O)Cn1cnc2cccnc21` [Example 88, 2-Imidazo[4,5-b]pyridin-3-yl-1-{(R)-2-methyl-4-[2-(2-morpholin-4-yl-acetyl)-1,2,3,4-tetrahydro-isoquinolin-8-yl]-piperazin-1-yl}-ethanone], the IC50 worked out at 1910 nM.

As for `C[C@@H]1CN(c2cccc3c2CN(C(=O)c2ccnn2C)CC3)CCN1C(=O)Cn1cnc2cccnc21` [Example 89, 2-Imidazo[4,5-b]pyridin-3-yl-1-{(R)-2-methyl-4-[2-(2-methyl-2H-pyrazole-3-carbonyl)-1,2,3,4-tetrahydro-isoquinolin-8-yl]-piperazin-1-yl}-ethanone], the half-maximal inhibitory concentration (IC50) amounted to 955 nM.

Turning to `Cc1ccc(N2CCc3cccc(N4CCN(C(=O)Cn5cnc6cccnc65)[C@H](C)C4)c3C2)nc1` [Example 90, 2-Imidazo[4,5-b]pyridin-3-yl-1-{(R)-2-methyl-4-[2-(5-methyl-pyridin-2-yl)-1,2,3,4-tetrahydro-isoquinolin-8-yl]-piperazin-1-yl}-ethanone], the IC50 turned out to be 11.2 nM.

On to `C[C@@H]1CN(c2cccc3c2CN(c2ccc(F)cn2)CC3)CCN1C(=O)Cn1cnc2cccnc21` [Example 91, 1-{(R)-4-[2-(5-Fluoro-pyridin-2-yl)-1,2,3,4-tetrahydro-isoquinolin-8-yl]-2-methyl-piperazin-1-yl}-2-imidazo[4,5-b]pyridin-3-yl-ethanone], for which the 50% inhibitory concentration (IC50) was determined as 8.01 nM.

For `Cc1ccc(N2CCc3cccc(N4CCN(C(=O)Cn5cnc6cccnc65)[C@H](C)C4)c3C2)cn1` [Example 92, 2-Imidazo[4,5-b]pyridin-3-yl-1-{(R)-2-methyl-4-[2-(6-methyl-pyridin-3-yl)-1,2,3,4-tetrahydro-isoquinolin-8-yl]-piperazin-1-yl}-ethanone], the IC50 came out at 0.97 nM.

On to `C[C@@H]1CN(c2cccc3c2CN(c2ccc(Cl)cc2)CC3)CCN1C(=O)Cn1cnc2cccnc21` [Example 93, 1-{(R)-4-[2-(4-Chloro-phenyl)-1,2,3,4-tetrahydro-isoquinolin-8-yl]-2-methyl-piperazin-1-yl}-2-imidazo[4,5-b]pyridin-3-yl-ethanone], for which the IC50 came to 7.55 nM.

On to `COc1ccccc1N1CCc2cccc(N3CCN(C(=O)Cn4cnc5cccnc54)[C@H](C)C3)c2C1` [Example 94, 2-Imidazo[4,5-b]pyridin-3-yl-1-{(R)-4-[2-(2-methoxy-phenyl)-1,2,3,4-tetrahydro-isoquinolin-8-yl]-2-methyl-piperazin-1-yl}-ethanone], for which the IC50 is 61.9 nM.

Take `C[C@@H]1CN(c2cccc3c2CN(c2ccc(C#N)cc2)CC3)CCN1C(=O)Cn1cnc2cccnc21` [Example 95, 4-{8-[(R)-4-(2-Imidazo[4,5-b]pyridin-3-yl-acetyl)-3-methyl-piperazin-1-yl]-3,4-dihydro-1H-isoquinolin-2-yl}-benzonitrile]: the half-maximal inhibitory concentration (IC50) was found to be 7.8 nM.

Turning to `C[C@@H]1CN(c2cccc3c2CN(c2ccc(C(F)(F)F)cc2)CC3)CCN1C(=O)Cn1cnc2cccnc21` [Example 96, 2-Imidazo[4,5-b]pyridin-3-yl-1-{(R)-2-methyl-4-[2-(4-trifluoromethyl-phenyl)-1,2,3,4-tetrahydro-isoquinolin-8-yl]-piperazin-1-yl}-ethanone], the IC50 came to 25.5 nM.
